Source: patent US20230047825A1, “ANTIMICROBIAL PEPTIDES” (priority 2019, published 2023)
“And” between values parts separate entries of the source, which are not always exact repeats. Equal entries are not always repeated. Where two headings read alike, the source gives them in different places. Where a SMILES comes first, the peptide text is derived from it.

Tested on: EMRSA-15 lung infection
Protocol: Murine EMRSA-15 lung infection model. In one embodiment this was carried out using the method described previously,^58 an overnight culture of EMRSA-15 was prepared in tryptic soy broth (TSB). EMRSA-15 was cultured in TSB overnight at 37° C., adjusted to a starting OD600 of 0.025, and grown for additional 4 h for agar beads preparation. EMRSA-15 was embedded into agar beads by mixing the overnight culture with molten tryptic soy agar, which was then spun into warmed mineral oil. The preparation was cooled and centrifuged at 2,700 g, the remaining oil was eliminated and the beads were washed in sterile PBS. The colony forming unit (cfu) content of the beads slurry was subsequently quantified on TSA plates and the beads slurry then diluted to either 2×10^7 cfu/ml in sterile PBS to deliver a final dose of either 1×10^6 cfu/mouse. Animal work was performed in accordance with the Animals (Scientific Procedures) Act of 1986 (United Kingdom). On day 0, male C57B16J mice (8-10 weeks, Charles River) were anesthetized under Isoflurane and 50 μl inoculum of EMRSA-15 embedded in agar beads (10^6 cfu/mouse) was instilled directly into the respiratory tract via oropharyngeal dosing (o.a) to reduce severity associated with surgery. Sham control mice were inoculated with sterile PBS agar beads. […] Body weight was measured daily, and animals monitored at regular intervals for signs of pain and distress. 48 hours post pulmonary infection, animals were terminally euthanized using 25% Urethane via intra-peritoneal injection. Lungs, were removed and homogenized in 2 ml PBS. Samples were serially diluted 1:10 in PBS and plated for CFU count. Lung homogenates were then centrifuged at 14000 rpm for 30 min at 4° C. and the supernatants were stored at −80° C. for future analysis. For bronchoalveolar lavage fluid collection and analysis (total and differential cell count), a 22-gauge catheter was inserted into the trachea and BAL was recovered by instillation of 0.5 ml of sterile PBS three times and total cells counts were performed by adding Turks stain in a 1:1 ratio. Total cells were then enumerated on an improved Naubauer haemocytometer. BAL fluid was then centrifuged, and supernatants were stored at −20° C. Cytospin slides were prepared and 100 μl of BAL was added into a cytospin funnel and centrifuged at 1000 rpm for 1 minute on a medium acceleration. The slides were then stained using Diff-Quick (Dade, Biomap, Italy).
More suitably Murine EMRSA-15 lung infection model was carried out using the method described previously,^58 an overnight culture of EMRSA-15 was prepared in tryptic soy broth (TSB). EMRSA-15 was cultured in TSB overnight at 37° C., adjusted to a starting OD600 of 0.025, and grown for additional 4 h for agar beads preparation. EMRSA-15 was embedded into agar beads by mixing the overnight culture with molten tryptic soy agar, which was then spun into warmed mineral oil. The preparation was cooled and centrifuged at 2,700 g, the remaining oil was eliminated, and the beads were washed in sterile PBS. The colony forming unit (CFU) content of the beads slurry was subsequently quantified on TSA plates and the beads slurry then diluted to either 2×10^7 CFU/ml in sterile PBS to deliver a final dose of either 1×10^6 CFU/mouse. Animal work was performed in accordance with the Animals (Scientific Procedures) Act of 1986 (United Kingdom). On day 0, male C57B16J mice (8-10 weeks, Charles River) were anesthetized under Isoflurane and 50 μl inoculum of EMRSA-15 embedded in agar beads (10^6 CFU/mouse) was instilled directly into the respiratory tract via oropharyngeal dosing (o.a.) to reduce severity associated with surgery. Sham control mice were inoculated with sterile PBS agar beads.

CC(C)C[C@@H](NC(=O)[C@@H](Cc1ccc(O)cc1)NC(=O)[C@@H](Cc1c[nH]cn1)NC(=O)[C@H](NC(=O)[C@@H](CC(C)C)NC(=O)[C@@H](C)NC(=O)[C@@H](C)NC(=O)[C@@H](CCCNC(=N)N)NC(=O)CNC(=O)[C@H](NC(=O)[C@@H](Cc1c[nH]cn1)NC(=O)[C@@H](CCCNC(=N)N)NC(=O)CNC(=O)[C@H](NC(=O)[C@@H](Cc1c[nH]cn1)NC(=O)[C@@H](C)NC(=O)[C@@H](C)NC(=O)[C@@H](CCCNC(=N)N)NC(=O)[C@@H](CCCNC(=N)N)NC(=O)[C@@H](Cc1ccccc1)NC(=O)[C@@H](Cc1ccccc1)NC(=O)[C@@H](CO)NC(=O)CNC(=O)[C@@H](Cc1c[nH]c2ccccc12)NC(=O)CN)C(C)C)C(C)C)[C@H](C)O)C(N)=O [D-pleurocidin-KR] (HELM PEPTIDE1{G.[dW].G.[dS].[dF].[dF].[dR].[dR].[dA].[dA].[dH].[dV].G.[dR].[dH].[dV].G.[dR].[dA].[dA].[dL].[dT].[dH].[dY].[dL].[am]}$$$$V2.0; N-terminus assumed)
reduction in lung CFU (cumulative dose 1.5 mg/kg/48h i.v.): 0.9 log10
reduction in lung CFU (cumulative dose 15 mg/kg/48h i.v. (three doses at 4, 24, 30 h post infection), 15 mg/kg): 1.14 log10 and 1.1 log10
reduction in lung CFU (cumulative dose 15 mg/kg/48h i.v. (three doses at 4, 24, 30 h post infection), listed as AMP2b, 15 mg/kg): 1.14 log10
weight loss over the 48-hour infection period (cumulative dose of 15 or 1.5 mg/kg/48h i.v.): mitigates this weight loss
IL-6 and neutrophil recruitment in BAL (following therapy, i.v.): reduced
macrophage numbers, TNFα and MCP-1 levels in BAL (following therapy, i.v.): No effects
tolerability in murine lung infection model (i.v., cumulative dose of 15 or 1.5 mg/kg): well tolerated
weight loss over the 48-hour infection period (lowest cumulative dose of 0.15 mg/kg i.v.): no observable effect
IL-6 and neutrophil recruitment in BAL (lowest dose of D-pleurocidin-KR (0.15 mg/kg cumulative)): significant reduction
effective cumulative dose over 48 hrs (murine EMRSA-15 lung infection): 1.5 mg/kg
mouse KC levels in BAL (vancomycin 600 mg/kg or the two higher D-pleurocidin-KR doses (15, 1.5 mg/kg cumulative)): KC levels to fall to that of the uninfected group
